Columns and labels:
[1] = test system: L1210/DDP; assay: Cellular accumulation in L1210/DDP cells; assay type: cell-based, murine; settings: 2 hours of exposure; (±SE), 3 experiments of 2 determinations
Method: (§1) Cellular accumulation. The cellular accumulation assays followed published procedures (7). Briefly, cells were resuspended at 10^7/mL in media supplemented with […]. Platinum complexes were added, and samples were incubated at 37° C. in 5% CO2. At 0 and 2 hours aliquots were removed for determination of cell concentrations and for measurement of platinum content. For the latter, aliquots were washed three times in cold phosphate buffered saline, resuspended in 1% Triton-X in water, and sonicated. Platinum content was measured by flameless atomic absorption spectroscopy.
(§2) The cellular accumulation of the blocked Pt compound 2 was also investigated. […] Based solely on charge considerations the BOC-spermidine with a charge of 2+ should have cellular uptake similar to 1,1/t,t (n=6). The enhanced uptake could be explained by some hydrolysis in media or plasma producing small amounts of the protonated 1,1/t,t-spermidine. Considering the potency of polynuclear-polyamine compounds, a small percentage of hydrolysis could have a significant impact on in vivo activity.

[2] = pKa of the N4 site by pH titration monitored by 1H NMR; assay type: physicochemical
Method: pH measurements were taken on a Corning 340 pH meter with combined glass electrode. pD values in deuterated solutions were obtained by addition of 0.4 units to the meter reading. Extinction coefficients were determined with a Jasco V-550 UV/VIS spectrophotometer using 1 cm cuvettes.
In order to find the optimal conditions for the synthetic procedure, the pKa of the N4 site of the unprotected Pt spermidine complex 1 was determined prior to the protection reactions (6). A pH titration was carried out and monitored by ^1H NMR spectroscopy (11 and 12). […] The increased acidity is most likely a consequence of the electron withdrawing effect of the coordinated platinum centers.

[3] = test system: 41M; assay: SRB growth inhibition assay, 41M; assay type: cell-based, human; settings: 96 h exposure
Method: (§3) Cell culture. A2780, A2780/CDDP, CH1, CH1/CDDP, 41M and 41M/CDDP cell lines were used in this study and maintained according to published procedures. (8,9).
(§4) Growth inhibition assay. The Sulforhodamine B (SRB) assay was used to determine growth inhibition potency of platinum drugs (10). The cells were seeded in 96-well microtitre plates at 3-8×10^3 cells/well in 160 μL growth medium and allowed to attach overnight. Platinum agents were then added after serial dilution in quadruplicate wells and exposed to cells for 2 or 96 hours. After the 2 hours drug incubations were complete, plates were washed free of drug with phosphate-buffered saline (PBS) and then refed with normal growth medium for a further 94 hours. Quantitation of cell growth in treated and control wells was then assessed using 0.4% SRB dissolved in 1% acetic acid. IC50 values were determined graphically.
(§5) Of special interest is the remarkably low value for 4 (Fmoc) in A2780 cells.

[4] = test system: L1210/0; assay: Cellular accumulation in L1210/0 cells; assay type: cell-based, murine; settings: 2 hours of exposure; (±SE), 3 experiments of 2 determinations
Method: as §1, §2

[5] = test system: A2780/CDDP; assay: SRB growth inhibition assay, A2780/CDDP; assay type: cell-based, human; settings: 96 h exposure
Method: as §3
as §4, with “graphically. […]” for “graphically.”

[6] = test system: A2780; assay: SRB growth inhibition assay, A2780; assay type: cell-based, human; settings: 96 h exposure
Method: as §3, §4, §5

[7] = test system: L1210/0; assay: Growth inhibition in L1210/0 cells; assay type: cell-based, murine; settings: 2 hours of exposure; mean (±SE), 3 experiments of 2 determinations
Description: To examine the pro-drug potential in a biological setting, a comparison of the pharmacological properties of the blocked polyamine compounds in L1210 murine leukemia cells was undertaken.

[8] = test system: L1210/DDP; assay: Growth inhibition in L1210/DDP cells; assay type: cell-based, murine
[9] = test system: CH1/CDDP; assay: SRB growth inhibition assay, CH1/CDDP; assay type: cell-based, human
Method: as §3
as §4, with “graphically. […]” for “graphically.”

[10] = test system: CH1; assay: SRB growth inhibition assay, CH1; assay type: cell-based, human; settings: 96 h exposure
Method: as §3, §4, §5

In the case of `N.N.N.N.NCCCC[NH2+]CCCN.[Cl-].[Cl-].[Cl-].[Cl][Pt+].[Cl][Pt+]` [Compound 1, [{trans-Pt(NH3)2Cl}2-μ-spermidine-N^1,N^8]Cl3], the “Accumulation L1210/DDP” value [1] is reported as 20 (2.1) attamol Pt complex/cell, the “pKa of the N4 site” value [2] is reported as 9.24±0.05 and the IC50 [3] is reported as under 0.25 µM. For the same compound, the “Accumulation L1210/0” value [4] was 17 (3.4) attamol Pt complex/cell, the IC50 [5] was under 0.25 µM and the IC50 [6] was under 0.25 µM. The IC50 [7] was 0.75 µM, the IC50 ([8]; 2 hours of exposure, mean (±SE), 3 experiments of 2 determinations) was 0.26 µM and the “RF, resistance factor” value ([8]; IC50 L1210/DDP / IC50 L1210/0, 2 hours of exposure) was 0.35. For the same compound, the IC50 ([9]; 96 h exposure) was 0.35 µM, the “RF CH1/CDDP” value ([9]; IC50 resistant/IC50 parent line, 96 h) was 0.8 and the IC50 [10] was 0.43 µM.

Source: patent US7579373B2, “Targeted bisplatinum polyamines as pro-drugs: selective release of platinum” (Virginia Commonwealth University, priority 2002, dated 2009)
